# Data: ChEMBL document CHEMBL5226280, “Non-hydroxamate inhibitors of 1-deoxy-d-xylulose 5-phosphate reductoisomerase (DXR): A critical review and future perspective” (Eur J Med Chem, 2021)
# How the values were obtained:
# [1] = target: T1, 1-deoxy-D-xylulose 5-phosphate reductoisomerase (Escherichia coli K-12, UniProt P45568); test: Inhibition of Escherichia coli DXR assessed as inhibition constant pre-incubated for 2 mins in presence of NADPH by spectrophotometric assay
# T1 sequence (P45568 whole entry): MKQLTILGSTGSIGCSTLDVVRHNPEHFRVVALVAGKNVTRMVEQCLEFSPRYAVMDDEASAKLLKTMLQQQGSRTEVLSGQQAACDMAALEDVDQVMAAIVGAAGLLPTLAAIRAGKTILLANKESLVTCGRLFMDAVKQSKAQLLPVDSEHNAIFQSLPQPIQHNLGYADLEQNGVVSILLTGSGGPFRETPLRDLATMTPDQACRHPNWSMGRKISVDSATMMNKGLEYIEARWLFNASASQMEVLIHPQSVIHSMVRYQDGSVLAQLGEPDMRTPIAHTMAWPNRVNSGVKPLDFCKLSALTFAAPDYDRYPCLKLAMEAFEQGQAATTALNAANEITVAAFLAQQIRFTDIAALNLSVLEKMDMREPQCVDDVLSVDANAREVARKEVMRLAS
# Escherichia coli [2] = test: Antimicrobial activity against Escherichia coli BW25113 assessed as minimal inhibitory concentration incubated for 18 hrs by microdilution assay; format: functional
# Escherichia coli [3] = test: Antimicrobial activity against Escherichia coli deltaGlpT JW2234-2 assessed as minimal inhibitory concentration incubated for 18 hrs by microdilution assay; format: functional
# [4] = target: T1, 1-deoxy-D-xylulose 5-phosphate reductoisomerase; test: Inhibition of recombinant Escherichia coli DXR in presence of NADPH
# Plasmodium falciparum = test: Antiplasmodial activity against Plasmodium falciparum K1 infected in human erythrocyte assessed as assessed as inhibition of parasite growth; format: functional, organism-based
# [5] = target: T1, 1-deoxy-D-xylulose 5-phosphate reductoisomerase; test: Inhibition of His-tagged Escherichia coli DXR using DXP as substrate incubated for 1 min in presence of NADPH by UV-Vis spectrophotometric assay
smiles,measurement,setting,value
O=C(CCCP(=O)(O)O)NO,IC50,[1],0.17 µM
CN(O)C(=O)CCCP(=O)(O)O,IC50,[1],0.048 µM
CN1CC(=O)OB(CCCP(=O)(O)O)OC(=O)C1,MIC90,Escherichia coli [2],63 µg/mL
same,MIC90,Escherichia coli [3],52 µg/mL
CN(O)C(=O)CCCC(=O)O,IC50,[4],25 µM
CS(=O)(=O)c1ccccc1NC(=O)CCCP(=O)(O)O,IC50,Plasmodium falciparum,> 64 µM
O=P(O)(O)CCCB(O)O,IC50,[5],125 µM
same,MIC90,Escherichia coli [2],53 µg/mL
same,MIC90,Escherichia coli [3],37 µg/mL
CC(=O)c1ccccc1NC(=O)CCCP(=O)(O)O,IC50,Plasmodium falciparum,> 64 µM
O=C(CCCP(=O)(O)O)Nc1ccccc1F,IC50,Plasmodium falciparum,> 64 µM
